Assay results reported in ChEMBL document CHEMBL1201862, “PubChem BioAssay data set” (2004).
The source made the active and inactive calls.

Key:
[1] = Luminescence Cell-Based Dose Confirmation HTS to Identify Inhibitors of Platelet Dense Granule Release. [Related pubchem assays: 1663 (Primary HTS), 1678 (Summary of Project)]; format: functional
[2] = target: T1, High affinity choline transporter 1 (Homo sapiens, UniProt Q9GZV3); assay: CHT inhibitors, dose response, cell-based, 5-point CRC, membrane potential dye (AID 504840); format: functional
T1 sequence (Q9GZV3 whole entry): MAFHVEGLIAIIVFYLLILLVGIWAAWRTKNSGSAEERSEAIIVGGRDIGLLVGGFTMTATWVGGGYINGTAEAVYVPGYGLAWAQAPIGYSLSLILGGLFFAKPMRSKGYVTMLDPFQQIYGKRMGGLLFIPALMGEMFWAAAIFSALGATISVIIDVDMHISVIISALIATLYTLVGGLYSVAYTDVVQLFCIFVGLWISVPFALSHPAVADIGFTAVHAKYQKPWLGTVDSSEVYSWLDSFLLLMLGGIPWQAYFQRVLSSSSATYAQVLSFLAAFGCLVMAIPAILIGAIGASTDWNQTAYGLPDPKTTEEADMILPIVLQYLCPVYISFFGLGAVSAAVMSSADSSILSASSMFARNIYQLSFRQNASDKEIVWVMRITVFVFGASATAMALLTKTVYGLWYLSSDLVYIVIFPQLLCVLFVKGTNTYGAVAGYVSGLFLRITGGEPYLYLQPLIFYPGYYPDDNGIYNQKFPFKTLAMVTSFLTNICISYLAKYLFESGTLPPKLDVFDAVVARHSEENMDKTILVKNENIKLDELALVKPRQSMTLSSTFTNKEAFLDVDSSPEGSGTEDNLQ

[3] = target: T1, High affinity choline transporter 1; assay: CHT inhibitors, dose response, cell-based, 10-point CRC, membrane potential dye (AID 588401); format: functional;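 note: membrane potential dye fluorescence of choline-evoked depolarization via CHT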
[4] = test system: P388/ADR; assay: cells; format: functional; conditions: Mus musculus
[5] = test system: SN12K1; assay: cells; format: functional; conditions: Homo sapiens
[6] = test system: P388; assay: cells; format: functional; conditions: Mus musculus
[7] = target: T2, Low molecular weight phosphotyrosine protein phosphatase (Homo sapiens, UniProt P24666); format: functional; conditions: read-out: IC50_Mean
T2 sequence (P24666 whole entry): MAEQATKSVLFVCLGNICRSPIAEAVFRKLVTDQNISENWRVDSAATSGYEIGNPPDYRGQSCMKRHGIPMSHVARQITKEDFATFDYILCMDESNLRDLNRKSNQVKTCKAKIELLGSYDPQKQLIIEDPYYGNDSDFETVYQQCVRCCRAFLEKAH

[8] = target: T2, Low molecular weight phosphotyrosine protein phosphatase; format: functional; conditions: read-out: IC50_Mean; remark: listed apart in the source
[9] = target: Ras and Rab interactor 1/Tyrosine-protein kinase ABL1 (Homo sapiens, UniProt P00519+Q13671); format: functional;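 note: biochemical TR-FRET dose-response test measuring inhibition of binding between Rin1 and Abl proteins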
[10] = insulin promoter down-regulators in MIN6 cells, imaging, high-content screening, mouse beta cells (AID 1628); format: functional
[11] = cytotoxicity in MIN6 insulinoma cells, dose response, cytotoxicity control, cell-based, mouse insulinoma (AID 2122); format: functional;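 note: confirmatory high-throughput counterscreen run to flag cytotoxic compounds; mouse MIN-6 beta cells carrying an insulin promoter eGFP reporter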
[12] = test system: INS1; assay: beta cell apoptosis inhibitors, cytokine rescue, dose response, luminescence, retest (AID 449756); format: functional, cell-based; conditions: Rattus norvegicus;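 note: cell death triggered by IL-1 beta plus TNF-alpha plus IFN-gamma mixture; protective hits raise ATP signal compared with cytokine alone wells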
[13] = Fluorescence-based cell-based high throughput dose response assay for inhibitors of the interaction of nucleotide-binding oligomerization domain containing 2 (NOD2) and the receptor-interacting serine-threonine kinase 2 (RIPK2).; format: functional, Homo sapiens; conditions: Homo sapiens
[14] = target: Beta Lactamase (Pseudomonas aeruginosa, UniProt Q932Y6); assay: beta-lactamase reporter inhibitor potency, dose response, artefact control for NOD2-RIPK2 interaction inhibitor project, BLA reporter cells, FRET fluorescence (AID 651552); format: functional, cell-based
Beta Lactamase, sequence (Q932Y6 whole entry): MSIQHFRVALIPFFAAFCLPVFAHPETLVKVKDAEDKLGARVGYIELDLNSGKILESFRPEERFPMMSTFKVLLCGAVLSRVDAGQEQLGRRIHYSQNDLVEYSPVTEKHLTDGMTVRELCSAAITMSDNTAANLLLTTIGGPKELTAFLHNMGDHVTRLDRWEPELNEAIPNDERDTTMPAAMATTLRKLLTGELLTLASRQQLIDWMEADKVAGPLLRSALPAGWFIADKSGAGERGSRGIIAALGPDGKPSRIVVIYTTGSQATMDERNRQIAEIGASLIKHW

[15] = target: T3, Calpain-2 catalytic subunit (Sus scrofa, UniProt P43367); assay: pig calpain II inhibitor potency, dose response, biochemical, fluorogenic peptide substrate (AID 1420); format: functional
T3 sequence (P43367 whole entry): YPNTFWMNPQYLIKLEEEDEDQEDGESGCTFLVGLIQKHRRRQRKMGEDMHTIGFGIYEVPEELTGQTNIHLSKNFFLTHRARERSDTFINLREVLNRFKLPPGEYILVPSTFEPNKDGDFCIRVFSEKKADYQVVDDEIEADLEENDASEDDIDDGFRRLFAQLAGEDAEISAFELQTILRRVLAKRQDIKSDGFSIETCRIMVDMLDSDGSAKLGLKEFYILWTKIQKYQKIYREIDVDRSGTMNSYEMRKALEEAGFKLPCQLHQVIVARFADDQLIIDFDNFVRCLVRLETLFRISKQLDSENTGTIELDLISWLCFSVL

[16] = target: Photoreceptor-specific nuclear receptor (Homo sapiens, UniProt Q9Y5X4); format: functional, cell-based;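 note: CHO-S cells with Gal4-NCOR and VP16-NR2E3 two-hybrid luciferase reporter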
Photoreceptor-specific nuclear receptor, sequence (Q9Y5X4 whole entry, the tested form may be a part): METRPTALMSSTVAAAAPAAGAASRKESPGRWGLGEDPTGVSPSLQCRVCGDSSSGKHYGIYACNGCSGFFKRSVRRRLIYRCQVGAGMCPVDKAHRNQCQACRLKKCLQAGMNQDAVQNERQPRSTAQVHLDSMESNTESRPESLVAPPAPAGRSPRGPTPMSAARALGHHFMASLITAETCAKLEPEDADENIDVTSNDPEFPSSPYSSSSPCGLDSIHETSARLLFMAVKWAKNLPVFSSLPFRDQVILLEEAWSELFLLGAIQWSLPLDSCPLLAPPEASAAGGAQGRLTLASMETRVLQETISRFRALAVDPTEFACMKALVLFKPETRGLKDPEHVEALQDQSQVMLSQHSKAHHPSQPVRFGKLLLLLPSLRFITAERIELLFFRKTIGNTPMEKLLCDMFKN

[17] = target: T4, Short transient receptor potential channel 4 (Mus musculus, UniProt Q9QUQ5); assay: mouse TRPC4 channel inhibitors, dose response, cell-based, HEK293 TRPC4/mu-opioid, Fluo-4 calcium (AID 434942); format: functional;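 note: potency of inhibitors blocking the TRPC4 calcium response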
T4 sequence (Q9QUQ5 whole entry): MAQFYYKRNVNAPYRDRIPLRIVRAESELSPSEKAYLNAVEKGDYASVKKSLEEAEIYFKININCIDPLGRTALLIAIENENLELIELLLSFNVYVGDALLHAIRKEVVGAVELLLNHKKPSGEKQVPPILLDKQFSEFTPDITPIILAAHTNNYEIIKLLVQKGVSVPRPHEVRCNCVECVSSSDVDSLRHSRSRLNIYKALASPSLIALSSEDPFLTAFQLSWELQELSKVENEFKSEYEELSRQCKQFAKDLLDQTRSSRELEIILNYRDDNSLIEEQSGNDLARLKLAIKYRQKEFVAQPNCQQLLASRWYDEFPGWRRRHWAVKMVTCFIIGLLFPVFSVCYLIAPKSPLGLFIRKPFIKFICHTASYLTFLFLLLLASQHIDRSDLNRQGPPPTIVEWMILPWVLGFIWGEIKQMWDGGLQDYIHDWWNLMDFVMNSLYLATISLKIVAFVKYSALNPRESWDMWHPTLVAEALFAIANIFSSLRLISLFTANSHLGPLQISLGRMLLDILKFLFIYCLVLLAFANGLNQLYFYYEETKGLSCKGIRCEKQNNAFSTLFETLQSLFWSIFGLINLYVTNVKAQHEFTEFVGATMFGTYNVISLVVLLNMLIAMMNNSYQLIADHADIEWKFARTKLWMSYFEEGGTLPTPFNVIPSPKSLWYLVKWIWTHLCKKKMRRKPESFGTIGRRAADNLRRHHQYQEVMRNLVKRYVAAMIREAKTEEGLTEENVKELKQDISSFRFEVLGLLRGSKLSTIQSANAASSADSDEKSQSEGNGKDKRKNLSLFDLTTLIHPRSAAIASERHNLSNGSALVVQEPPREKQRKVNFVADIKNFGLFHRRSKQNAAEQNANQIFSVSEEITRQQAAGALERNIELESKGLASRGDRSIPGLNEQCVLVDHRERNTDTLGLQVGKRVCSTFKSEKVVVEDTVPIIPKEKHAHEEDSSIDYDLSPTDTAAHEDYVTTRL

[18] = target: T5, RNA-binding protein pos-1 (Caenorhabditis elegans, UniProt G5EF15); assay: inhibitors of POS-1/mex-3 RNA binding, dose response, biochemical, fluorescence polarization (AID 1964);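 note: purified POS-1 fused to maltose binding protein made in E. coli; potency of compounds blocking POS-1 binding to fluorescent RNA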
T5 sequence (G5EF15 whole entry): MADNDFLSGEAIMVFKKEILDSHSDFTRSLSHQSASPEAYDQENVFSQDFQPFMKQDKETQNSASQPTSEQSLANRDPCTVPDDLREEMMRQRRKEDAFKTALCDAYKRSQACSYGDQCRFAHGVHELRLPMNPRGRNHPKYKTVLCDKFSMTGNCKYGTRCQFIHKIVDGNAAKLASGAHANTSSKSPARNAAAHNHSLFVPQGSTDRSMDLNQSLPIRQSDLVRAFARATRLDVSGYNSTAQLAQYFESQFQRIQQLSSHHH

[19] = target: T6, Zinc finger protein mex-5 (Caenorhabditis elegans, UniProt Q9XUB2); assay: MEX-5/TCR-2 RNA interaction inhibitors, dose response, biochemical, C. elegans, fluorescence polarization (AID 1960)
T6 sequence (Q9XUB2 whole entry): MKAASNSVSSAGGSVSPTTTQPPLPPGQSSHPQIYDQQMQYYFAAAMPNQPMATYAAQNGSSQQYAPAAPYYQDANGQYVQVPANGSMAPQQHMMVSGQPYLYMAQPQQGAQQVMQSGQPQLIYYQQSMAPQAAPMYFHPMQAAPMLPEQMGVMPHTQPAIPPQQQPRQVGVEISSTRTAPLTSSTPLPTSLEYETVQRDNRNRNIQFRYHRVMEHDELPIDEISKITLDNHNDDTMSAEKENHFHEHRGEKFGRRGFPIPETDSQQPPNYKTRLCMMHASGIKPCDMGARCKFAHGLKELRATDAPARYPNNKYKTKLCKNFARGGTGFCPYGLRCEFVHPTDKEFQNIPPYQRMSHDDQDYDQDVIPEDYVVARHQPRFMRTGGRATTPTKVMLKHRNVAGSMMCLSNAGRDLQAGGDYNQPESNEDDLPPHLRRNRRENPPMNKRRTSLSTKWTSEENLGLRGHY

[20] = test system: Vero; assay: Vero cell cytotoxicity, cytotoxicity control for flavivirus capping enzyme inhibitors (AID 588742); format: functional; conditions: Chlorocebus sabaeus
[21] = target: Genome polyprotein (dengue virus type 2, UniProt P29990); assay: Dengue-2 NS5 methyltransferase inhibitors, primary screen, biochemical, confirmation dose response (AID 588689); format: functional
Genome polyprotein, sequence (P29990 2492-3391 limits assumed): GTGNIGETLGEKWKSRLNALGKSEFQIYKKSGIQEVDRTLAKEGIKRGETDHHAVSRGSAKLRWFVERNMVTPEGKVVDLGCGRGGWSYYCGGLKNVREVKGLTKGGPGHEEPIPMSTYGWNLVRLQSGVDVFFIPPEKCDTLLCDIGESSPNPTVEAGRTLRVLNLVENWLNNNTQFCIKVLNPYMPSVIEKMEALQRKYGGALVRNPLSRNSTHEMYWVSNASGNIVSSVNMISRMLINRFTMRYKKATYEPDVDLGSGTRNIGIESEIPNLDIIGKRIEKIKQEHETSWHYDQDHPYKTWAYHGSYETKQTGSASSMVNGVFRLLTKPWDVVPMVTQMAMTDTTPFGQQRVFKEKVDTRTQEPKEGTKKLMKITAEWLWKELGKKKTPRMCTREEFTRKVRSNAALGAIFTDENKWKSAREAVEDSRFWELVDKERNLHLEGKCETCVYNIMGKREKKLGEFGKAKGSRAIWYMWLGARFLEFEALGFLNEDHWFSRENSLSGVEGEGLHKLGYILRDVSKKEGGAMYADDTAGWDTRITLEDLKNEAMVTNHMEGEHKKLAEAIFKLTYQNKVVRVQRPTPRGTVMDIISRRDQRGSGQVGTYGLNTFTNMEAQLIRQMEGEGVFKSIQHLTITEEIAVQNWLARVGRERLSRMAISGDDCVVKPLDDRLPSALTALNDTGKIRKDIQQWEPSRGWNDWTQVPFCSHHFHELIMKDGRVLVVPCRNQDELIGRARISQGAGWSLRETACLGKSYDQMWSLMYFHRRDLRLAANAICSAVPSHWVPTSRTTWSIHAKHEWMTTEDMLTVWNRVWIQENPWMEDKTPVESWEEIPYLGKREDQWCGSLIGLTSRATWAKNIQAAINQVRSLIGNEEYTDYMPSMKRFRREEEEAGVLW

[22] = target: T7, Cytochrome P450 1A2 (Homo sapiens, UniProt P05177);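 note: PubChem cytochrome P450 panel assay, CYP1A2 panel member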
T7 sequence (P05177 whole entry): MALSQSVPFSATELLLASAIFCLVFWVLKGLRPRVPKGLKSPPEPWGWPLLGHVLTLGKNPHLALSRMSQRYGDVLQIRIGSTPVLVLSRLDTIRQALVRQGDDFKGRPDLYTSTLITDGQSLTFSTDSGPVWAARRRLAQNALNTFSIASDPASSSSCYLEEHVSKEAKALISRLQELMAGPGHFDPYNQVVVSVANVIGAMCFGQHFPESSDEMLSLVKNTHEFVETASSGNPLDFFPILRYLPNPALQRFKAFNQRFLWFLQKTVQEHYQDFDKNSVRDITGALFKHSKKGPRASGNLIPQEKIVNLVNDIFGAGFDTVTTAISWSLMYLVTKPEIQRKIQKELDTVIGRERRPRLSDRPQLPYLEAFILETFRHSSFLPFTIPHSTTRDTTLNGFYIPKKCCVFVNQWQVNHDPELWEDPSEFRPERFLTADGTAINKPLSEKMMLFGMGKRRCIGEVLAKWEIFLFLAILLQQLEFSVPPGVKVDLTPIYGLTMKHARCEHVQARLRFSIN

[23] = target: Cytochrome P450 2C9 (Homo sapiens, UniProt P11712)
Cytochrome P450 2C9, sequence (P11712 whole entry, the tested form may be a part): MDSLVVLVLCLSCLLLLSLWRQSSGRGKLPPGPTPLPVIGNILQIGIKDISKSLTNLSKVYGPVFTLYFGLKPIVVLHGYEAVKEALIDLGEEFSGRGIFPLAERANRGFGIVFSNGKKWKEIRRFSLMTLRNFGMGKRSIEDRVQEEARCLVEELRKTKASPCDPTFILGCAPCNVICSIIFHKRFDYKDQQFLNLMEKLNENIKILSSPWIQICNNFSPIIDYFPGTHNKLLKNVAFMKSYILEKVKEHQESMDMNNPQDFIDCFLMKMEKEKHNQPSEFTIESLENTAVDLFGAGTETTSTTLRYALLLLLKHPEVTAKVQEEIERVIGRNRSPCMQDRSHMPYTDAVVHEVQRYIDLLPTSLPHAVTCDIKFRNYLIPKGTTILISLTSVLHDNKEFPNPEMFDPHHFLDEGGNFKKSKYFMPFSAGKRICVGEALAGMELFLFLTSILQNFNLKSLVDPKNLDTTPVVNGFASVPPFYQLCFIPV

[24] = target: Hepatocyte nuclear factor 4-alpha (Homo sapiens, UniProt P41235); format: functional, cell-based;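 note: biochemical luminescence-based dose-response counterscreen measuring inhibition of HNF4 dimerization, run alongside a screen for blockers of ABHD5–perilipin-5 interaction; split luciferase complementation of HNF4 fusion proteins in cell lysate measuring dimerization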
Hepatocyte nuclear factor 4-alpha, sequence (P41235 whole entry, the tested form may be a part): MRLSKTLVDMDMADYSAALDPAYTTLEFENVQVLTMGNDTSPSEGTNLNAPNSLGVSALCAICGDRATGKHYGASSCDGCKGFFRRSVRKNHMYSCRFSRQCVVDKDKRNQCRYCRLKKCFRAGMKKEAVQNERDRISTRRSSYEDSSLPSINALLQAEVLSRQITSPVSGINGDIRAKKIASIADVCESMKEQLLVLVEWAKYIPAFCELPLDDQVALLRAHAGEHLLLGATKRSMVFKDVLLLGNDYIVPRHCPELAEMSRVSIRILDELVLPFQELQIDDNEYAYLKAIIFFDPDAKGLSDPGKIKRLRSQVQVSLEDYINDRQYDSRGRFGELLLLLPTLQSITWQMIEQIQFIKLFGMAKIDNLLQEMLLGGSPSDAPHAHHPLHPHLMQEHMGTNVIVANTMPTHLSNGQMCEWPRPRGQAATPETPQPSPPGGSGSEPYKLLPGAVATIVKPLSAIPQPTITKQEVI

[25] = target: T8, Fatty acid synthase (Homo sapiens, UniProt P49327); assay: FAS thioesterase domain inhibitors, dose response, biochemical, endpoint fluorescence intensity, uHTS hits (AID 624327); format: functional;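 note: fluorescence from hydrolysis of an O-methyl fluorescein acyl ester substrate by the enzyme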
T8 sequence (P49327 whole entry, the tested form may be a part): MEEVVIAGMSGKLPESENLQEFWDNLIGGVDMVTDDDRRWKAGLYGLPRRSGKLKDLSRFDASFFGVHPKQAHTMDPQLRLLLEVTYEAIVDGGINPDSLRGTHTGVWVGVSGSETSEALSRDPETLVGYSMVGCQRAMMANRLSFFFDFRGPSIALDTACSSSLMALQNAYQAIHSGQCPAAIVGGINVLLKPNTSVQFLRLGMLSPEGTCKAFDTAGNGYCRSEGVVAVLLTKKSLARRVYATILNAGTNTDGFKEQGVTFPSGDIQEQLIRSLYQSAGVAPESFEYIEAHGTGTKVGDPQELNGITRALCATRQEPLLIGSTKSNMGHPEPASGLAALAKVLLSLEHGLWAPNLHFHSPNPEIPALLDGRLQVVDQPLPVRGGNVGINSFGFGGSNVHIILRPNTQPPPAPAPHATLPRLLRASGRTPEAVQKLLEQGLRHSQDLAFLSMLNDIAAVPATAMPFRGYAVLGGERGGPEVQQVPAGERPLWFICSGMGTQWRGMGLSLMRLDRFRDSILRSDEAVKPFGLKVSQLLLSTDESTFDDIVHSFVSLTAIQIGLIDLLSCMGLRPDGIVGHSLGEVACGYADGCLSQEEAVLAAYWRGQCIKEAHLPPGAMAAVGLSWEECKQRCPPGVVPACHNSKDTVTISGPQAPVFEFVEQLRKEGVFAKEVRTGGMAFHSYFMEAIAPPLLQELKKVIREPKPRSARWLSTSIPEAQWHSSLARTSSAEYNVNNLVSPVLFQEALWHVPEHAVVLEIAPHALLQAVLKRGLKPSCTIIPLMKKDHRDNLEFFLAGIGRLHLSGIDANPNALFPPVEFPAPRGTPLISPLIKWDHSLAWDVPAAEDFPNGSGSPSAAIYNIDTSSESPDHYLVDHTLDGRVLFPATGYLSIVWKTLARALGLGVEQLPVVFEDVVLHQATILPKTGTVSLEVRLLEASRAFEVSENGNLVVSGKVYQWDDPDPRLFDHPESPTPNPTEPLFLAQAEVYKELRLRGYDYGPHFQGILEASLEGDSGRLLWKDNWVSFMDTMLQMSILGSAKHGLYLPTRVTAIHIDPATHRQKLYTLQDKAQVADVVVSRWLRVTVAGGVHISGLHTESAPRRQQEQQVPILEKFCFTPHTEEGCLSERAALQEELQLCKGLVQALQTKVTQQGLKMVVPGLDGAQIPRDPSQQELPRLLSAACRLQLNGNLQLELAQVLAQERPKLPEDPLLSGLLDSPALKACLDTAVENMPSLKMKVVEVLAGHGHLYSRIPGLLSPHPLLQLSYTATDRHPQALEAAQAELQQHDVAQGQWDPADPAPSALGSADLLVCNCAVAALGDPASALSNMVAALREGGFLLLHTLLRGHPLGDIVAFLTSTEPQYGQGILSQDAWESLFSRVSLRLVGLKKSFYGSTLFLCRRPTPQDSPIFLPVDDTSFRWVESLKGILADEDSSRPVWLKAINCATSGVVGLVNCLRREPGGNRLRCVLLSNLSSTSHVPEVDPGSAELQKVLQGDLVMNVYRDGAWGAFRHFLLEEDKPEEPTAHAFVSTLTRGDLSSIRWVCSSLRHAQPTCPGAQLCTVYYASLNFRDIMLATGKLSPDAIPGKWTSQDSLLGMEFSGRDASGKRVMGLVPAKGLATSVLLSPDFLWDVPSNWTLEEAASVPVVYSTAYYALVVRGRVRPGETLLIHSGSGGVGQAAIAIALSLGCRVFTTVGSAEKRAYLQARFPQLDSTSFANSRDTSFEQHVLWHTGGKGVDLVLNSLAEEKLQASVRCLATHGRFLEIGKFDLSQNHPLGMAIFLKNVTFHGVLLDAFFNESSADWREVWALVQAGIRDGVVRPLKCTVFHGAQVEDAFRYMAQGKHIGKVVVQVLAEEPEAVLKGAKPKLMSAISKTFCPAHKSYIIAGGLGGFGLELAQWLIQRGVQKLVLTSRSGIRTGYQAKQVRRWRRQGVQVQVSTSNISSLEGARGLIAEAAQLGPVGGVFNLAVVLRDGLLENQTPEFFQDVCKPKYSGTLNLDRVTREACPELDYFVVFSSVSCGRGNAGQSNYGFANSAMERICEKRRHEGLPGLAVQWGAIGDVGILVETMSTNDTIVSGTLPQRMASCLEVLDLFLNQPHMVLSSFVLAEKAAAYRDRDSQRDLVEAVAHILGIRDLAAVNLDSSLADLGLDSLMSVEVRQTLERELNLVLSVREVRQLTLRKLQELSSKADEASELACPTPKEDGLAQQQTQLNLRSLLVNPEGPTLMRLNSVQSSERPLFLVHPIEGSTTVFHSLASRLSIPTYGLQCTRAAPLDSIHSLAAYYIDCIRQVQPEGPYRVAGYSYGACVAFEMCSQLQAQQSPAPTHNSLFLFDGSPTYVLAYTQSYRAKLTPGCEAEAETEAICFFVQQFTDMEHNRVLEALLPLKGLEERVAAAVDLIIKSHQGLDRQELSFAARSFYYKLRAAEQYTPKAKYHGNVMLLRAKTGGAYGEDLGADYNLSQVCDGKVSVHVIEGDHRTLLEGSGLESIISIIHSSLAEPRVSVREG

[26] = target: T8, Fatty acid synthase; assay: FAS thioesterase domain inhibitors, dose response, biochemical, kinetic fluorescence intensity (AID 624326); format: functional;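 note: rate of fluorescence rise from hydrolysis of a fluorogenic O-methyl fluorescein ester substrate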

Nc1ncnc2c1ncn2C1OC(CO)C(O)C1O (stereo not given)
EC50 [1]: 1.55 µM (active) | IC50 [2]: 0.588 µM (active) | IC50 [3]: 0.515 µM (active) | GI50 [4]: 14.5 µM (inactive) | GI50 [5]: > 74 µM (inactive) | GI50 [6]: 16.4 µM (inactive)

CN(C)c1nc(N)nc(/C(C#N)=C/C2CC3C=CC2C3)n1 (stereo not given)
IC50 [7]: 25.2 µM (inactive) | IC50 [8]: 10.6 µM (active)

COc1ccc(CCNC(=O)CSc2nc(C)nc3c2c(=O)n(C)c(=O)n3C)cc1OC
IC50 [9]: 13.9 µM (inactive)

Cc1cc(N2CCN(C)CC2)ccc1NC(=O)c1c2c(nc3ccccc13)CCN(Cc1ccccc1)C2
IC50 [10]: 1.37 µM (active) | IC50 [11]: 1.05 µM (active) | AC50 [12]: 4.71 µM (active) | IC50 [13]: 11 µM (inactive) | IC50 [14]: 12.3 µM (inactive)

CN1CCN(c2oc(Cc3cccc4ccccc34)nc2C#N)CC1
IC50 [2]: 1.66 µM (active) | IC50 [3]: 4.74 µM (active)

O=c1c(Cl)c(N2CCN(c3ccc(F)cc3)CC2)cnn1C12CC3CC(CC(C3)C1)C2
IC50 [15]: > 50 µM (not active) | IC50 [16]: 1.93 µM (active)

COc1cccc(Nc2c(Nc3cccc(OC)c3)c(=O)c2=O)c1
IC50 [7]: 10.4 µM (active) | IC50 [8]: 18.4 µM (active)

CC1CCCCN1CCCNC(=O)c1nn(C)c2c1CSc1ccccc1-2 (stereo not given)
EC50 [17]: 4.22 µM (active) | IC50 [2]: 5.6 µM (active) | IC50 [3]: 10.6 µM (active)

COc1cc(/C=N\Nc2ccc([N+](=O)[O-])cc2)ccc1OCC(=O)Nc1ccc(C)c(C)c1
EC50 [18]: > 300 µM (not active) | EC50 [19]: 234 µM (inconclusive) | CC50 [20]: > 40 µM (active) | IC50 [21]: 26.3 µM (active) | AC50 [22]: 7.08 µM (inconclusive) | AC50 [23]: 3.16 µM (inconclusive)

CCCCCc1c(-c2ccc(OC)c(OC)c2)ncn1CCc1ccccc1OC
IC50 [16]: 7.43 µM (active)

CC(C)(C)NC(=O)C(C1CC1)n1c(=O)c(-c2ccco2)nc2ccccc21 (stereo not given)
IC50 [24]: 1.72 µM (active)

CCOC(=O)[C@]12Cc3cc(Cl)ccc3[C@H]1N(C1CCCCC1)C(=O)c1ccccc12
IC50 [13]: 1.45 µM (active) | IC50 [14]: 19.9 µM (inactive) | IC50 [25]: 6.4 µM (active) | IC50 [26]: 4.57 µM (active)
